Measured values published in patent US5243027A, “Method of preparing angiotensin converting enzyme inhibitors” (Unitika, Ltd., priority 1990, dated 1993).
No end group written: not given here.

Target: T1, angiotensin converting enzyme (Oryctolagus cuniculus, UniProt P12822)
T1 construct: The supernatant was dialyzed against the same buffer to remove low-molecular weight substances resulting in an angiotensin converting enzyme solution; tissue Sigma Co; host or cells: rabbit lung (acetone-dried preparation)
T1 sequence (P12822 34-1310): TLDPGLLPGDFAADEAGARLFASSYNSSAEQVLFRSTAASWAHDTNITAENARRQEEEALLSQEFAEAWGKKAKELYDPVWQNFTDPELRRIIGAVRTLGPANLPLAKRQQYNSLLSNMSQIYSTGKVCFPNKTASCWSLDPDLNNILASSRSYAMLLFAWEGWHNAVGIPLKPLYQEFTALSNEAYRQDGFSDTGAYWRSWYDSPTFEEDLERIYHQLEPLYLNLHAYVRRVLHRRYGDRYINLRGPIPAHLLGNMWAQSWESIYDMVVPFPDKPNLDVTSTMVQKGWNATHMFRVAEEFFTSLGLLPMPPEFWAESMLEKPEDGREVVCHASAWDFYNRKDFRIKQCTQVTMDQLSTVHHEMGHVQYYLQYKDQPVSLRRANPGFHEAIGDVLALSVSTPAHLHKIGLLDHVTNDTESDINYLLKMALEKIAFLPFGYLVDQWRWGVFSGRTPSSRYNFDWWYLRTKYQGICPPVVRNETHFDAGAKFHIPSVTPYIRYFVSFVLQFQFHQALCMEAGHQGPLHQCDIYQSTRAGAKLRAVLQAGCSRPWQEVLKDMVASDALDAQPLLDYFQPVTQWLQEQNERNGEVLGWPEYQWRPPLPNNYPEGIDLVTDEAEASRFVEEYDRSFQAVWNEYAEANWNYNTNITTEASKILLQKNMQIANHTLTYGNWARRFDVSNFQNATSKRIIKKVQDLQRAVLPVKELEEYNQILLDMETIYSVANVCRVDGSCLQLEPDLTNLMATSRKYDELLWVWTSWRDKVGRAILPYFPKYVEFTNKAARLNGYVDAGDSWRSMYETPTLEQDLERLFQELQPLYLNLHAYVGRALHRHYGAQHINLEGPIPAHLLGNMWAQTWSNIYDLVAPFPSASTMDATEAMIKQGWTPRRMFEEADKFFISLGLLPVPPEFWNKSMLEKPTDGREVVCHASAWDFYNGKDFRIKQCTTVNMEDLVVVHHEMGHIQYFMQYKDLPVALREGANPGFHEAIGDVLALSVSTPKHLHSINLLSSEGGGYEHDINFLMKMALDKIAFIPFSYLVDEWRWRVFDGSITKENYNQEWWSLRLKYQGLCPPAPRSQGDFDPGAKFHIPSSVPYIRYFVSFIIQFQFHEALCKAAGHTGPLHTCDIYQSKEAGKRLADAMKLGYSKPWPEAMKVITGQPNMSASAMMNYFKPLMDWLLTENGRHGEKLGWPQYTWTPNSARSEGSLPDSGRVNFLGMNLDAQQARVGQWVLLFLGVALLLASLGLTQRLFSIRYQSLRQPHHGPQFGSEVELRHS
Assay: Determination of angiotensin converting enzyme inhibitory activity (method of Cushmann et al., hippuryl-L-histidine-L-leucine substrate)
Format: biochemical
Details: rabbit lung enzyme, 37° C., 30 minutes, pH 8.3; peptides isolated from Bacillus stearothermophilus hydrolysate; read-out: IC50 (concentration of the sample showing 50% inhibition) (converted)
Protocol: Angiotensin converting enzyme inhibitory activity during isolation and purification was determined using the method of Cushmann et al., Biochem. Pharacol., Vol. 20, pp. 1637-1648 (1971).
A commercially available acetone-dried preparation of rabbit lungs (product of Sigma Co.) was dissolved in a 50 mM potassium phosphate buffer solution (pH=8.3) at 4° C. and the solution was centrifuged at 37,000×g for 30 minutes. The supernatant was dialyzed against the same buffer to remove low-molecular weight substances resulting in an angiotensin converting enzyme solution.
Hippuryl-L-histidine-L-leucine (product of Peptide Kenkyusho) was added to a 0.1M potassium phosphate buffer solution (pH=8.3) containing 0.3M NaCl to prepare a 2.5 mM enzyme substrate solution. The above-prepared angiotensin converting enzyme, water and a test sample were added to the substrate solution in a final volume of 0.25 ml and the system was allowed to react at 37° C. for 30 minutes. Then, 0.25 ml of 1N HCl was added thereto to stop the reaction and 1.5 ml of ethyl acetate was added to extract released hippuric acid. A 1 ml aliquot of the ethyl acetate extract was evaporated to dryness. To the residue was added 1 ml of distilled water and the absorbance at 228 nm was measured to determine the amount of hippuric acid.
Percent inhibition was calculated from the above-measured absorbance (A) and an absorbance of a blank (B) according to the following equation: [formula] The concentration of the sample showing 50% inhibition was taken as IC50.

Sequence	IC50 [µM]
AYIASKGL [(c), Ala-Tyr-Ile-Ala-Ser-Lys-Gly-Leu]	35
GKEIIVKAER [(a), Gly-Lys-Glu-Ile-Ile-Val-Lys-Ala-Glu-Arg]	65.7
GKMVKVVSWY [(b), Gly-Lys-Met-Val-Lys-Val-Val-Ser-Trp-Tyr]	6.69
